The subject of data set [1] is male Sprague-Dawley rats. The data set can be described thus: Antiallergic activity: passive cutaneous anaphylaxis test. The following applies: oral, suspension with Tween 80, ten minutes before the releasing injection, rat; read-out: ED50 (percentage decrease of the amount of Evans blue diffused in the papule). It counts as in vivo. The method, then:
The antiallergic activity was determined by the passive cutaneous anaphylaxis test in the following manner. A quantity of 0.1 ml of serum containing IgE was administered intradermally to male Sprague-Dawley rats. The serum was prepared by sensitizing Sprague-Dawley rats by an intraperitoneal injection of ovalbumin and a suspension of Bordetella pertussis followed after 20 days by a second injection of ovalbumin. 24 Hours after administration of the serum, 0.5 ml of a solution containing 8.25 mg/kg of ovalbumin and 26.4 mg/kg of Evans blue in a pH 7.05 buffer was administered intravenously. After 30 minutes the animals were sacrificed. Each papule was dissected, weighed and incubated for four days at 37° C. in 15 g of formamide. The amount of Evans blue contained in each papule was determined by measuring the optical density of the mixture. The product to be tested was administered orally in a homogenous suspension in the presence of Tween 80, ten minutes before the releasing injection. Its activity is evaluated by the percentage decrease of the amount of Evans blue which has diffused in the papule.

Data set [2] is described as follows: Lethality (LD50) by oral administration in the Swiss mouse. The following applies: in vivo, 20% solution in Tween, 14 days observation. On the procedure: The lethality produced by the compounds of this invention was measured in the Swiss mouse free from specific pathogenic organisms.
The subject of data set [3] is isolated ileum of the guinea pig. The data set can be described thus: Antihistaminic activity in vitro: inhibition of histamine-induced contractions of isolated ileum. It counts as cell-based. The following applies: Cavia porcellus, histamine 1×10^-8 g/l, bathing method, read-out: IC50 (concentration producing 50% inhibition of contractions induced by histamine). The method, then: The antihistaminic activity was measured in vitro by measuring the concentration which produced 50% inhibition of the contractions induced by histamine (1×10^-8 g/l) in the isolated ileum of the guinea pig (IC50).

Converted amounts (≈) assume the structure as drawn.

Regarding `Nc1ccccc1CCN1CCN(c2ccccc2)CC1` [Example 1, 2-(4-phenylpiperazinylethyl)aniline], the ED50 – broadly, the midpoint of the dose-response relation – in data set [1] was 5.11 mg/kg. In data set [2], the LD50 (commonly the dose expected to kill half of the subjects tested) at 336 h is 1180 mg/kg. Also, the IC50 in data set [3] is 6.3 mg/L (≈ 22.4 µM).
